Results reported in patent US20060270664A1, “Fluorescent fused-ring triazoles that inhibit cell proliferation and uses thereof” (priority 2004, published 2006).

Key:
[1] = Fluorescence excitation and emission spectra (Perkin-Elmer LS-5B Luminescence Spectrometer); assay type: physicochemical; details: 10 micromolar solution
Procedure: Excitation and emission spectra of a 10 micromolar solution of compounds IIa and IIb were determined using a Perkin-Elmer LS-5B Luminescence Spectrometer.

[2] = test system: human HeLa cervical carcinoma; assay: Growth inhibition of tumor cells in culture, Coulter Counter cell count after 5 days; assay type: cell-based; details: 120 h, read-out: IC50 of fused ring triazole (concentration inhibiting growth of cell line by 50%)
Procedure: (§1) Experiments were performed in accordance with the procedure described by Yurkow and Laskin (Cancer Chemother. Pharmacol. 1991 27:315-319). In these experiments, tumor cells were maintained in culture in growth medium consisting of Dulbecco's modified Eagle's medium (DMEM) supplemented with 10% fetal bovine. Tumor cells were plated at low density (5000 cells/well) in 6-well tissue culture dishes and allowed to adhere overnight. The medium was then replaced with phenol red-free DMEM supplemented with increasing concentrations of the compounds, with zero concentration of compound serving as the control. Six concentrations and a control were used for each inhibitor, and each concentration was tested in triplicate. After 5 days, cells were removed from the dishes and enumerated using a Coulter Counter (Coulter Electronics, Inc.). The controls and treated samples at each concentration were averaged. Data are presented as the percentage of control growth at each concentration of the compound, plus and minus the standard error. The IC50 for growth inhibition was the concentration of each compound that inhibited growth by 50%. These are depicted in Table 1.

[3] = test system: mouse B16 melanoma; assay: as above; assay type: cell-based; details: 120 h, read-out: IC50 of fused ring triazole (concentration inhibiting growth of cell line by 50%)
Procedure: as §1

[4] = test system: mouse PAM 212 keratinocytes; assay: as above; assay type: cell-based; details: PAM212, 120 h, read-out: IC50 of fused ring triazole (concentration inhibiting growth of cell line by 50%)
Procedure: as §1

[5] = test system: human CX-1 colon cells; assay: as above; assay type: cell-based; details: 120 h, read-out: IC50 of fused ring triazole (concentration inhibiting growth of cell line by 50%)
Procedure: as §1

| Emission peak [1] [nm] | Excitation peaks [1] [nm] | Structure (SMILES) | IC50 [2] [µM] | IC50 [3] [µM] | IC50 [4] [µM] | IC50 [5] [µM] |
| --- | --- | --- | --- | --- | --- | --- |
| 358 |  | C1=Nn2c(nnc2-c2ccncc2)S/C1=C\c1ccccc1 [Compound IIa, 3-(4-pyridyl)-7-(phenylmethylene)-s-triazolo[3,4-b] [1,3,4]-thiadiazine] | 4 | 9 | 10 | 17 |
|  |  | C1=Nn2c(nnc2-c2cccs2)S/C1=C\c1ccccc1 [Compound IId, 3-(2-thienyl)-7-(phenylmethylene)-s-triazolo[3,4-b] [1,3,4]-thiadiazine] | 28 | 23 | 18 | 20 |
| 320 | 249 | C1=Nn2c(nnc2-c2ccccn2)S/C1=C\c1ccccc1 [Compound IIb, 3-(2-pyridyl)-7-(phenylmethylene)-s-triazolo[3,4-b] [1,3,4]-thiadiazine] | 9 | 15 | 18 | 30 |
